Data from ChEMBL document CHEMBL5308504, “Tm Shift (DSF) assay results for EUbOPEN Chemogenomics Library” (2023).

What was measured:
Peregrin (Homo sapiens) = biological target: T1, Peregrin (Homo sapiens) (UniProt P55201); conditions: Compound concentration 20.0 uM, Protein concentration 2.0 uM, Result type QC Liability
T1 sequence (whole entry): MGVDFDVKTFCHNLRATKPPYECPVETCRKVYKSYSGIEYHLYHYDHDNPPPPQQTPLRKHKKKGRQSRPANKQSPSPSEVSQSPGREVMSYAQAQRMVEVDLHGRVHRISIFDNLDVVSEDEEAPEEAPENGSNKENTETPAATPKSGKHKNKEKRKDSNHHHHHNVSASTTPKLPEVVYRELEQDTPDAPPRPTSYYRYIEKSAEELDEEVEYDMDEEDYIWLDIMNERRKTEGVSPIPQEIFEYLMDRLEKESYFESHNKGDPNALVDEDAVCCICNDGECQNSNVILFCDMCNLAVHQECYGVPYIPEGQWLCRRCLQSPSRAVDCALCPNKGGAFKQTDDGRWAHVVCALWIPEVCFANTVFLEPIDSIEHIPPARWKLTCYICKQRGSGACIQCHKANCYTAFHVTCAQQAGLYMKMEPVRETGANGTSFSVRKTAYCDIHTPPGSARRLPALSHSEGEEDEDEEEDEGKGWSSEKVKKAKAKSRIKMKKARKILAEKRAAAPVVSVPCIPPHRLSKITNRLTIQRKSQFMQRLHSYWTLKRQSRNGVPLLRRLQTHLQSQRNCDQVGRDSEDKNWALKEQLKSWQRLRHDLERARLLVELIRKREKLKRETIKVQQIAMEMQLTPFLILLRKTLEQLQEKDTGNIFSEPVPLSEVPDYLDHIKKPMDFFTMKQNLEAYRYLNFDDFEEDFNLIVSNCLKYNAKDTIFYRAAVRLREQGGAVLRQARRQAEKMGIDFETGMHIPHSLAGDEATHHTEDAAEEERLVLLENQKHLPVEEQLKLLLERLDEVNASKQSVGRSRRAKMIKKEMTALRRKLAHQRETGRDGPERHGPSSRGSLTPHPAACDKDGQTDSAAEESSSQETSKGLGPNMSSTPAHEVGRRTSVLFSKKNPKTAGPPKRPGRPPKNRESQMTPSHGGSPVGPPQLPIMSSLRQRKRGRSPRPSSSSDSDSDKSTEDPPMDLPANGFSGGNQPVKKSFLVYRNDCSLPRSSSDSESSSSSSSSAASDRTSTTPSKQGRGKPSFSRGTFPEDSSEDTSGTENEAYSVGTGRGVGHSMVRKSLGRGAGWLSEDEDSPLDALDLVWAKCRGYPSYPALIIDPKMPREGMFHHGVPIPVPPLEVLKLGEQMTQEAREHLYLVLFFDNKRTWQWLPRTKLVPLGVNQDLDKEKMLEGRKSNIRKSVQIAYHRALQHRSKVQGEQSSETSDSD

[1] = biological target: Fibroblast growth factor receptor 3 (Homo sapiens) (UniProt P22607); conditions: Compound concentration 20.0 uM, Protein concentration 2.0 uM, Result type QC Liability
Chain of Fibroblast growth factor receptor 3 (Homo sapiens) (P22607 23-806 limits assumed): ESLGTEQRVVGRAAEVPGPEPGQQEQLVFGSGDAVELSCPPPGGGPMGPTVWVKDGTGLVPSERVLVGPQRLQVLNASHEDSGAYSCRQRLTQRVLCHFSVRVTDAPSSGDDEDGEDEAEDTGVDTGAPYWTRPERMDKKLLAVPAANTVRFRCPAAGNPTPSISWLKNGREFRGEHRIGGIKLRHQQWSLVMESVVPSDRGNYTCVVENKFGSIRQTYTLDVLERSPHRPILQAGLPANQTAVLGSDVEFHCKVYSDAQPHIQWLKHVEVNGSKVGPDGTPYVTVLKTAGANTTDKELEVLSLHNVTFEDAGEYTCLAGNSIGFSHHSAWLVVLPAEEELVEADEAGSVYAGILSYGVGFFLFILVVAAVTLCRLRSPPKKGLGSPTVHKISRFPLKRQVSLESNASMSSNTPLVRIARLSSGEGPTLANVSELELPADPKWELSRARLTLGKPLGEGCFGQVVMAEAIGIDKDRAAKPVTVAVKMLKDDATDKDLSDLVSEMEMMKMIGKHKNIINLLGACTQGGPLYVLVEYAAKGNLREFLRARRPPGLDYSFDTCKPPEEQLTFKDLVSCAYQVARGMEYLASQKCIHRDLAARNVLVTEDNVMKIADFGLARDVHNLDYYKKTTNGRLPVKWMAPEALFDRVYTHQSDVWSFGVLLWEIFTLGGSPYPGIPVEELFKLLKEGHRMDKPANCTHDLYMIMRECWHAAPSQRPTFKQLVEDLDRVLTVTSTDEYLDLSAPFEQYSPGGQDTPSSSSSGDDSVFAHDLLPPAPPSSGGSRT
Description: Thermal Shift Assay. Domain: start/stop: P449-E759

SMILES | ΔTm (Peregrin (Homo sapiens)) | ΔTm [1]
CCCCc1oc2ccccc2c1C(=O)c1cc(I)c(OCCN(CC)CC)c(I)c1 | -1.31 °C | 0.79 °C
Cc1cc(OC2CCS(=O)(=O)CC2)cc(C)c1-c1cccc(COc2ccc(C(=O)O)c(F)c2)c1 | -2.62 °C | 1.28 °C
Nc1c(CC(=O)O)cccc1C(=O)c1ccc(Br)cc1 | -2.36 °C | 0.57 °C
CC[C@H]1[C@@H](O)[C@@H]2[C@H](CC[C@]3(C)[C@@H]([C@H](C)CCC(=O)O)CC[C@@H]23)[C@@]2(C)CC[C@@H](O)C[C@@H]12 | -1.33 °C | 0 °C
c1ccc2c(-c3coc4cc(-c5ccc(N6CCNCC6)cc5)cnc34)ccnc2c1 | -2.26 °C | 1.12 °C
O=C1Nc2ccc(C(=O)c3ccco3)cc2C1=Cc1cc(Cl)c(O)c(Cl)c1 | 0.59 °C | 2.35 °C
Cn1cc(-c2ccc(N(C(=O)NCc3ccccc3)[C@H]3CC[C@H](Nc4ccc(C#N)cn4)CC3)cc2)ccc1=O | -0.32 °C | 1.75 °C
CCCCc1c(-c2ccccc2)nc(N)nc1-c1ccc(OCc2ccccc2)c(F)c1F | -4.97 °C | -0.31 °C
Cc1cc(-c2nc(-c3ccc(OC(F)(F)F)cc3)no2)nn1Cc1ccnc(N2CCN(C3CC3)CC2)c1 | -10.7 °C | 1.28 °C
NC(=O)c1ccc(-c2nc(-c3ccc4c(c3)OCCO4)c(-c3ccccn3)[nH]2)cc1 | 0.84 °C | 1.37 °C
NC(=O)OC[C@H](NC(=O)Cn1nc(-c2ccc(Cl)cc2)n(C[C@H](O)C(F)(F)F)c1=O)c1cccc(C(F)(F)F)c1 | -3.24 °C | 1.19 °C
Cc1cc(OC2CCS(=O)(=O)CC2)cc(C)c1-c1cccc(COc2ccc(CCC(=O)O)c(F)c2)c1 | -4.37 °C | 0.31 °C
CCN1CCN(Cc2ccc(C(=O)Nc3ccc(C)c(Oc4ccc5c(c4)CC(=O)N5)c3)cc2C(F)(F)F)CC1 | -1.47 °C | 3.22 °C
COP(=O)(CCC(N)C(=O)O)Oc1cccc(CC(=O)O)c1 (stereo unspecified) | -1.49 °C | 0.51 °C
CN1CCC(F)(Cn2cnc(-c3ccc(F)cn3)c2-c2ccnc3[nH]ccc23)CC1 | -0.88 °C | 0.5 °C
CC(=O)N(CCN(C)C)c1ccc(N/C(=C2\C(=O)Nc3cc(Cl)ccc32)c2ccccc2)cn1 | -1.84 °C | 7.35 °C
COc1ncc(-c2cc(-c3ncc(CN4C[C@@H](C)O[C@@H](C)C4)o3)c3cn[nH]c3c2)cc1NS(C)(=O)=O | -0.2 °C | 1.45 °C
CCCCCCC(Sc1nc(Cl)cc(NCc2ccc(-c3ccccc3)cc2)n1)C(=O)O (stereo unspecified) | -6.38 °C | 0.79 °C
